According to PubChem BioAssay (NCI):
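Test compounds were applied to cells in 96-well plates for 48 hours at 5 doses. The concentration for full growth arrest is given as TGI.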

What was measured:
Assay in all cases: DTP human tumour cell line panel, 48 h
MALME-3M melanoma = tested on: MALME-3M melanoma
A498 renal = tested on: A498 renal
PC-3 prostate = tested on: PC-3 prostate
NCI-H226 lung = tested on: NCI-H226 lung
NCI/ADR-RES ovarian = tested on: NCI/ADR-RES ovarian
RPMI-8226 leukemia = tested on: RPMI-8226 leukemia
LOX IMVI melanoma = tested on: LOX IMVI melanoma
SW-620 colon = tested on: SW-620 colon
M19-MEL melanoma = tested on: M19-MEL melanoma
DMS 273 small cell lung = tested on: DMS 273 small cell lung
SNB-78 CNS = tested on: SNB-78 CNS
KM20L2 colon = tested on: KM20L2 colon
DMS 114 small cell lung = tested on: DMS 114 small cell lung

SMILES: COc1cc([C@@H]2c3cc4c(cc3[C@@H](Nc3ccc([N+](=O)[O-])cc3C(=O)c3ccccc3)[C@H]3COC(=O)[C@H]23)OCO4)cc(OC)c1OC
- TGI (MALME-3M melanoma): > 100 µM
- TGI (A498 renal): > 100 µM
- TGI (PC-3 prostate): > 100 µM
- TGI (NCI-H226 lung): > 100 µM
- TGI (NCI/ADR-RES ovarian): > 100 µM
- TGI (RPMI-8226 leukemia): > 100 µM
- TGI (LOX IMVI melanoma): > 100 µM
- TGI (SW-620 colon): > 100 µM

SMILES: CNS(=O)(=O)NNS(=O)(=O)c1ccc2ccccc2c1
- TGI (MALME-3M melanoma): > 100 µM
- TGI (A498 renal): > 100 µM
- TGI (M19-MEL melanoma): > 100 µM
- TGI (DMS 273 small cell lung): > 100 µM
- TGI (SNB-78 CNS): > 100 µM
- TGI (KM20L2 colon): > 100 µM
- TGI (NCI-H226 lung): > 100 µM
- TGI (DMS 114 small cell lung): > 100 µM
- TGI (RPMI-8226 leukemia): > 100 µM
- TGI (LOX IMVI melanoma): > 100 µM
- TGI (SW-620 colon): > 100 µM

SMILES: CC1C=C(CCCCCCCCCCCC[C@@H](O)[C@@H]2CC[C@@H]([C@@H]3CC[C@@H](C(O)CCCCCCCCCCCCC4=C[C@H](C)OC4=O)O3)O2)C(=O)O1 (stereo partly specified)
- TGI (MALME-3M melanoma): > 100 µM
- TGI (A498 renal): > 100 µM
- TGI (M19-MEL melanoma): > 100 µM
- TGI (DMS 273 small cell lung): > 100 µM
- TGI (KM20L2 colon): > 100 µM
- TGI (NCI-H226 lung): > 100 µM
- TGI (DMS 114 small cell lung): > 100 µM
- TGI (RPMI-8226 leukemia): > 84.5 µM
- TGI (LOX IMVI melanoma): > 100 µM
- TGI (SW-620 colon): > 100 µM

SMILES: CC(C)c1ccc(/C=C2/C=C(c3ccc4ccccc4c3)OC2=O)cc1
- TGI (MALME-3M melanoma): 33.4 µM
- TGI (A498 renal): > 100 µM
- TGI (PC-3 prostate): > 100 µM
- TGI (NCI-H226 lung): > 100 µM
- TGI (NCI/ADR-RES ovarian): > 100 µM
- TGI (RPMI-8226 leukemia): 93.7 µM
- TGI (LOX IMVI melanoma): > 100 µM
- TGI (SW-620 colon): > 100 µM

SMILES: N#CN=C(N(Cc1ccccc1)Cc1ccccc1)N(Cc1ccccc1)Cc1ccccc1
- TGI (MALME-3M melanoma): > 100 µM
- TGI (A498 renal): > 100 µM
- TGI (M19-MEL melanoma): > 100 µM
- TGI (SNB-78 CNS): > 100 µM
- TGI (KM20L2 colon): > 100 µM
- TGI (NCI-H226 lung): > 100 µM
- TGI (DMS 114 small cell lung): > 100 µM
- TGI (RPMI-8226 leukemia): > 100 µM
- TGI (LOX IMVI melanoma): > 100 µM
- TGI (SW-620 colon): > 100 µM

SMILES: CN1CCN([C@H]2C[C@H]3[C@@H]4CC=C5C[C@@H](O)CC[C@]5(C)[C@H]4CC[C@]3(C)C2=O)CC1
- TGI (MALME-3M melanoma): > 100 µM
- TGI (A498 renal): > 100 µM
- TGI (PC-3 prostate): > 100 µM
- TGI (NCI-H226 lung): > 100 µM
- TGI (NCI/ADR-RES ovarian): > 100 µM
- TGI (RPMI-8226 leukemia): > 100 µM
- TGI (LOX IMVI melanoma): > 100 µM
- TGI (SW-620 colon): > 100 µM

SMILES: COC(=O)c1cc2c(n1S(=O)(=O)c1ccc(C)cc1)C(=O)C(=O)c1[nH]cc(C(=O)OCc3ccccc3)c1-2
- TGI (MALME-3M melanoma): 0.115 µM
- TGI (A498 renal): 3.26 µM
- TGI (PC-3 prostate): 1.13 µM
- TGI (NCI-H226 lung): 0.462 µM
- TGI (NCI/ADR-RES ovarian): 5.26 µM
- TGI (RPMI-8226 leukemia): 0.515 µM
- TGI (LOX IMVI melanoma): 0.176 µM
- TGI (SW-620 colon): 0.174 µM

SMILES: O=[N+]([O-])C(=C1NCCN1)/C(Cl)=C(\Cl)Br
- TGI (MALME-3M melanoma): > 61.7 µM
- TGI (A498 renal): > 63.4 µM
- TGI (PC-3 prostate): > 100 µM
- TGI (NCI-H226 lung): > 100 µM
- TGI (NCI/ADR-RES ovarian): > 100 µM
- TGI (RPMI-8226 leukemia): 62.4 µM
- TGI (LOX IMVI melanoma): 33.4 µM
- TGI (SW-620 colon): 27.2 µM
